Laboratory results taken from patent publication US20230092389A1, “UNIT DOSES, AEROSOLS, KITS, AND METHODS FOR TREATING HEART CONDITIONS BY PULMONARY ADMINISTRATION” (InCarda Therapeutics, Inc., priority 2017, published 2023).
Read-outs that look alike come from different tables or passages of the source.

What was measured:
healthy volunteers = conditions: in vivo
Description: (§1) 3 cohorts of subjects, in total 34 healthy adult volunteers, were recruited for Part A study.
(§2) Part B was an open label non-randomized crossover in a cohort of 6 evaluable healthy adult volunteers.
Adverse events were monitored and recorded.

[1] = tested on: pigs with induced atrial fibrillation; assay: Cardioversion of induced AF by IT flecainide, intact porcine model (Example 6); format: in vivo, Yorkshire pigs
Description: After 30-min recovery, the alternate intervention was tested. Times for conversion to normal sinus rhythm were compared.

[2] = male, Yorkshire, pig, in vivo, iv, 2 mg/kg
Description: The studies were carried out in male Yorkshire pigs (n=9) weighing 36±1.0 kg (mean±SEM). The pigs were pre-anesthetized with telazol (4.7 mg/kg, intramuscular) and subsequently further anesthetized using alpha-chloralose (80 mg/kg, IV bolus, followed by 24 mg/kg/h continuous IV infusion). The animals were intubated and ventilated at a constant rate of 12 breaths/min and tidal volume of 400 ml per stroke.
Simultaneous blood samples were drawn from the pigtail catheter positioned in the LV and from a catheter in the jugular vein.
The samples were centrifuged and frozen at −80° C. until drug level determination was performed using a bioanalytical assay method developed by Climax Laboratories, Inc.

[3] = in vivo
Description: as §1, §2

[4] = cited from earlier work
[5] = tested on: anesthetized Yorkshire pigs; assay: PD (hemodynamics, ECG intervals) after IV or IT in anesthetized pigs (Example 5); format: in vivo
Description: All catheters were positioned under fluoroscopic guidance. […] Data are reported as means±SEM. Statistical analyses were performed using the SAS system (9.4) to apply ANOVA with a post-hoc Dunnett's test. Statistical significance was assumed at p<0.05.

clinical = conditions: human, in vivo; for Tmax: Tmax (min after EOI)
Description: as §1, §2

[6] = both, human, inhaled or intranasal, 20 mg
[7] = both, human, inhaled or intranasal, 40 mg
[8] = both, human, inhaled or intranasal, 60 mg
[9] = IV 2 mg/Kg, n = 3, Mean ± SEM, package insert
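For Cmax of the two excluded subjects in this document: measured in healthy adult volunteers.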
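For Dist. t1/2α in this document: measured in healthy adult volunteers.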
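For Elim. t1/2β in this document: measured in healthy adult volunteers.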
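For Tmax (min after EOI) in this document: measured in healthy adult volunteers.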
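For Tmax in excluded subjects in this document: measured in healthy adult volunteers.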
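For concentration-time profile curves, IV normalized to 30 mg vs inhaled 30 mg eTLD in this document: measured in healthy adult volunteers.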
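For dose dependence of Cmax and AUCLast in this document: measured in healthy adult volunteers.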
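For dose dependence of distribution phase and elimination half-life in this document: measured in healthy adult volunteers.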
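For dose proportionality of venous plasma concentrations in this document: measured in healthy adult volunteers.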
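For elimination t1/2β in this document: measured in healthy adult volunteers.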
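For plasma concentration in subjects with near-equal ΔQRS (12.0 to 16 msec) in this document: measured in healthy adult volunteers.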
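For venous plasma concentration-time curves, inhaled vs IV in this document: measured in healthy adult volunteers.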

In the case of O=C(NCC1CCCCN1)c1cc(OCC(F)(F)F)ccc1OCC(F)(F)F (stereo not drawn) [flecainide], the “remaining study-drug related events (cough, dysphonia, dyspnoea, oral hypoesthesia, chest discomfort)” value (healthy volunteers; human, po) is reported as “occurred once in 1 subject each”, the “AEs occurring more frequently than with placebo” value (healthy volunteers) is reported as “oropharyngeal discomfort, shortness of breath (dyspnoea), cough and dry mouth” and the “dose dependence of incidence of AEs” value (healthy volunteers) is reported as “appears not to be dose-dependent”. The “intensity of TEAEs” value (healthy volunteers) was “mild in intensity”, the serious adverse events (healthy volunteers) was “No serious adverse events were reported” and the tolerability of inhalation (healthy volunteers) was “well tolerated, and no subject interrupted the inhalation”. The “reduction of AF duration” value ([1]; IT 0.75 mg/kg vs no-drug) was 50%, the “time to conversion of AF to normal sinus rhythm” value ([1]; IT 0.75 mg/kg, n=3, no-drug 16.2±0.9) was 8.1 ± 1.0 min and the “AF conversion in representative electrograms, time after IT flecainide” value ([1]; IT 1.5 mg/kg (FIG. 65)) was 5 min. The “shortening in AF duration” value ([1]; IT 1.5 mg/kg vs no drug) was 72%, the “time to conversion of AF to normal sinus rhythm (mean±SEM)” value ([1]; IT 1.5 mg/kg, n=5, no drug 12.3±1.9 min) was 3.4 ± 0.3 min and the “dominant frequency of AF” value ([1]; IT 0.75 and 1.5 mg/kg) was “reduced the dominant frequency of AF”. For the same compound, the “relation of AF duration to dose” value ([1]; IT 0.75 and 1.5 mg/kg) was “AF duration correlated with flecainide dose”, the “time for plasma concentration to reach levels required for conversion” value ([1]; IT 0.75 and 1.5 mg/kg (FIG. 66A)) was ≤ 10 min and the “MAP and ventricular rate after conversion” value ([1]; IT 1.5 or 0.75 mg/kg) was “restored MAP and ventricular rate to baseline values”. The “effectiveness in rapidly converting AF to normal sinus rhythm” value ([1]; IT 1.5 or 0.75 mg/kg) was 100%, the “time of peak LV and venous plasma levels” value [2] was 2 min and the “elimination t1/2β” value ([3]; both, human) was 540 to 720 min. For the same compound, the “Cmax of the two excluded subjects” value ([3]; both, human, 40 mg) was 43.5 ng/mL, the “Cmax of the two excluded subjects” value ([3]; both, human, 60 mg) was 51.3 ng/mL and the “Tmax in excluded subjects” value ([3]; both, human, 60 mg) was “greater than 15 minutes”. The “Dist. t1/2α” value [3, 6] was 3.86 (34) min, the “Elim. t1/2β” value [3, 6] was 9.87 (25) hours and the “Dist. t1/2α” value [3, 7] was 4.19 (39) min. For the same compound, the “Elim. t1/2β” value [3, 7] was 9.0 (24) hours, the “Dist. t1/2α” value [3, 8] was 3.47 (17) min and the “Elim. t1/2β” value [3, 8] was 12.0 (14) hours. For the same compound, the “dose dependence of Cmax and AUCLast” value ([3]; human) was “dose-dependent”, the “dose dependence of distribution phase and elimination half-life” value ([3]; human) was “independent of the doses” and the “plasma concentration in subjects with near-equal ΔQRS (12.0 to 16 msec)” value ([3]; human) was 85 ± 40.3 ng/mL. For the same compound, the “Tmax (min after EOI)” value ([3]; human, inhaled or intranasal, 30 mg) was 0.5 (0, 1) min, the “plasma concentration in subjects with near-equal ΔQRS (12.0 to 16 msec)” value ([3]; human, iv) was 222 ± 23 ng/mL and the “Tmax (min after EOI)” value ([3]; human, iv, 2 mg/kg) was 1 (0, 60) min. The “dose proportionality of venous plasma concentrations” value [3] was “near dose proportionality”, the “venous plasma concentration-time curves, inhaled vs IV” value ([3]; 2 mg/kg) was “similar” and the “concentration-time profile curves, IV normalized to 30 mg vs inhaled 30 mg eTLD” value ([3]; iv) was “near-identical”. For the same compound, the AUClast [4, 9] was 4211 ± 456 ng·h/mL, the Cmax [4, 9] was 1644 ± 534 ng/mL and the Tmax ([4]; IV 2 mg/Kg, n = 3, package insert) was 10.0 min. The “Dist. t1/2” value ([4]; in vivo, iv, 2 mg/kg) was 2.6 ± 0.7 min, the “Elim. t1/2” value ([4]; in vivo, iv, 2 mg/kg) was 558 ± 6 min and the QRS duration ([5]; IT 0.75 mg/kg, 2 min, baseline 58±1.8 ms) was 64 ± 1.6 ms. For the same compound, the QRS duration ([5]; IT 0.75 mg/kg, 5 min, baseline 58±1.8 ms) was 65 ± 1.7 ms, the QRS duration ([5]; IT 0.75 mg/kg, 30 min) was 58 ± 0.9 ms and the mean arterial pressure ([5]; IT 0.75 mg/kg, baseline 111±3.6 mmHg, p=0.9112) was “not significantly altered across 30 min”. The heart rate ([5]; IT 0.75 mg/kg, baseline 111±6.4 bpm, p=0.9970) was “not significantly altered across 30 min”, the PR interval ([5]; IT 0.75 mg/kg, baseline 130±5.3 ms, p=0.9351) was “not significantly changed across 30 min” and the JTc interval ([5]; IT 0.75 mg/kg, baseline 354±12.0 ms, p=0.7605) was “not significantly changed across 30 min”. The QTc interval ([5]; IT 0.75 mg/kg, baseline 435±12.9 ms, p=0.5505) was “not significantly changed across 30 min”, the QRS duration ([5]; IT 1.5 mg/kg, 2 min, baseline 57±0.4 ms) was 68 ± 1.9 ms and the QRS duration ([5]; IT 1.5 mg/kg, 5 min) was 69 ± 2.2 ms. For the same compound, the QRS duration ([5]; IT 1.5 mg/kg, 10 min) was 67 ± 1.7 ms, the QRS duration ([5]; IT 1.5 mg/kg, 15 min) was 64 ± 1.3 ms and the QRS duration ([5]; IT 1.5 mg/kg, 30 min) was 60 ± 0.9 ms. For the same compound, the mean arterial pressure ([5]; IT 1.5 mg/kg, baseline 108±9.4 mmHg, p=0.9894) was “not significantly altered across 30 min”, the heart rate ([5]; IT 1.5 mg/kg, baseline 118±13.2 bpm, p=0.9999) was “not significantly altered across 30 min” and the PR interval ([5]; IT 1.5 mg/kg, baseline 127±2.3 ms, p=0.0819) was “not significantly changed across 30 min”. The JTc interval ([5]; IT 1.5 mg/kg, baseline 364±11.5 ms, p=0.9968) was “not significantly changed across 30 min”, the QTc interval ([5]; IT 1.5 mg/kg, baseline 436±7.1 ms, p=0.1510) was “not significantly changed across 30 min” and the heart rate ([5]; IV 2 mg/kg over 2 min, baseline 103±1.9 bpm, p=0.9936) was “not significantly altered across 30 min”. The QRS duration ([5]; IV 2 mg/kg, 2 min, baseline 58±1.9 ms) was 77 ± 6.2 ms, the QRS duration ([5]; IV 2 mg/kg, 5 min, baseline 58±1.9 ms) was 76 ± 4.8 ms and the QRS duration ([5]; IV 2 mg/kg, 30 min) was 59 ± 3.0 ms. For the same compound, the mean arterial pressure ([5]; IV 2 mg/kg, baseline 105±6.7 mmHg, p=0.8852) was “not significantly altered across 30 min”, the PR interval ([5]; IV 2 mg/kg, baseline 127±7.8 ms, p=0.5161) was “not significantly changed across 30 min” and the JTc interval ([5]; IV 2 mg/kg, baseline 367±7.4 ms, p=0.9686) was “not significantly changed across 30 min”. The QTc interval ([5]; IV 2 mg/kg, baseline 442±7.9 ms, p=0.35) was “not significantly changed across 30 min”, the half-life (clinical; both) was 3.5 to 4.2 min and the half-life (clinical; inhaled or intranasal, 30 mg) was 4.67 min. The Tmax (clinical; inhaled or intranasal, 30 mg) was ≤ 1 min, the half-life (clinical; iv, 2 mg/kg) was 4.28 min and the Tmax (clinical; iv, 2 mg/kg) was 1 to 60 min.
